Structures can show the parent of a compound that is named as a salt.
Key:
perfused hearts = experiment: calcium paradox in perfused hearts (Langendorff); set-up: species or system rat
Method: The effect of short-term hyperglycemia (2-5 days) on the calcium paradox was explored. The protocol (a 30-minute stabilization after hanging the heart on a Langendorff apparatus, a Ca^2+-free buffer for 10 min, a buffer containing 1.25 mM Ca^2+ buffer for 15 min) was initially applied to perfused hearts from control rats. When calcium was removed from the perfusate, the heart gradually ceased beating (FIG. 2A), although no protein loss from the heart was detected (FIG. 3C). […] The decrease in left ventricular […] pressure (LVDP) and an elevation in end diastolic pressure (EDP), as well as protein loss and blanching signaled the transition to a “stone heart” (Zimmerman, Cardiovasc Res (2000) 45(1):119-121) in hearts from all control animals examined.
Azaserine (AZA), the inhibitor of GFAT and HBP flux (Marshall, et al., J Biol Chem (1991) 266(8):4706-4712), negated the effects of hyperglycemia, restoring sensitivity to the paradox in 3 of 7 hearts (FIG. 2B). […] This decreased somewhat the protection seen with hyperglycemia, but made the reversal seen with azaserine more pronounced (FIGS. 2B and 3).
To confirm the involvement of the HBP in the protection due to hyperglycemia, a complementary series of experiments at a final Ca^2+ concentration of 1.25 mM were performed.
An independent mechanism of increasing metabolites in the HBP is to provide the heart with free fatty acids (Hawkins, et al., J Clin Invest (1997) 99(9):2173-2182). This occurs because of the “glucose-sparing” effect, a rapid block on the entry of glucose into the glycolytic pathway because of an inhibition of phosphofructokinase. […] In addition, SKF96365 (also known as 1-[β-[3-(4-methoxyphenyl)propoxy]-4-methoxyphenethyl]-1H-imidazole, HCl; available from Calbiochem, San Diego, Calif.) as an independent means of blocking the channels responsible for CCE was utilized (Putney, Capacitative Calcium Entry (1997) Austin: Landes Biomedical). This too was at least partially effective in 4 of 6 animals (FIG. 4).

hemorrhagic shock = details: in vivo; cited from earlier work
human = details: in vivo; cited from earlier work
[1] = system: animal models of ischemia/reperfusion; details: in vivo; cited from earlier work
isolated rat heart = details: administered prior to ischemia or just prior to reperfusion; cited from earlier work
isolated cardiomyocyte = details: cited from earlier work

In the case of `[N-]=[N+]=CC(=O)OC[C@H](N)C(=O)O` [Azaserine], the “hearts in which sensitivity to the calcium paradox was restored (effects of hyperglycemia negated)” value (perfused hearts; hearts from STZ hyperglycemic animals treated with azaserine) is reported as 3 of 7.

For `COc1ccc(CCCOC(Cn2ccnc2)c2ccc(OC)cc2)cc1` (stereo not drawn) [SKF96365, 1-[β-[3-(4-methoxyphenyl)propoxy]-4-methoxyphenethyl]-1H-imidazole, HCl], the “animals in which treatment was at least partially effective in the calcium paradox” value (perfused hearts; final Ca2+ 1.25 mM) was 4 of 6.

For `O=C(COP(=O)(O)O)[C@@H](O)[C@H](O)[C@H](O)COP(=O)(O)O` [FBP, fructose-1,6-bisphosphate], the “protection in hemorrhagic shock” value (hemorrhagic shock) is listed as “protective”, the “outcomes in human studies” value (human) is listed as “improved outcomes” and the “protection in animal models of ischemia/reperfusion” value [1] is listed as “protective”.

For `CN(N=O)C(=O)N[C@H]1C(O)O[C@H](CO)[C@@H](O)[C@@H]1O` (mixture of isomers) [streptozotocin], the “hearts demonstrating almost complete protection in the calcium paradox” value (perfused hearts; hearts from animals made hyperglycemic by STZ treatment (2-5 days), 10 min Ca2+-free, 1.25 mM Ca2+ readdition) was 7 of 7.

For `NC(=O)CC[C@H](N)C(=O)O` [glutamine], the “protection in cardiac ischemia” value (isolated rat heart) is listed as “remarkable protection” and the “protection in isolated cardiomyocyte model” value (isolated cardiomyocyte) is listed as “protective”.
